US20230107277A1, “SUBSTITUTED PYRIDAZINE COMPOUND” (Astellas Pharma Inc., priority 2020, published 2023)

Key:
[1] = test system: IL-1β Production of THP-1; test: Test on IL-1β production of THP-1 (LPS and ATP stimulation, ELISA); assay type: cell-based; settings: Homo sapiens; PMA-differentiated THP-1 cells, LPS 50 ng/mL and ATP 5 mM, 2 hours
Procedure: 50 ng/mL of PMA (phorbol myristate acetate, SIGMA, P1585) was added to THP-1 cells, and the cells were cultured at 37° C. for 2 days. […] LPS (Lipopolysaccharide, SIMGA, L2880) and ATP (Adenosine triphosphate, SIGMA, A2383) were added to final concentrations of 50 ng/mL and 5 mM, respectively, and the cells were cultured at 37° C. for 2 hours. The supernatant was collected, and the concentration of IL-1β was measured by an ELISA method (DuoSet ELISA human IL-1β, R&D Systems, DY201). […] The IC50 value was calculated by sigmoid […] model non-linear regression analysis.

[2] = test system: IL-1β p17 in the cerebral spinal fluid; test: Test on IL-1β production in rat central nerve (LPS/BzATP intracisternal, CSF Western blot); settings: oral
Procedure: After 2 hours, the test compound was orally administered. After 1 hour, 50 μg/5 μL of BzATP (2′(3′)-O-(4-Benzoylbenzoyl)adenosine 5′-triphosphate triethylammonium salt, SIGMA, B6396) was intracisternally administered, and after 30 minutes, a cerebral spinal fluid was collected. The amount of IL-1β p17 in the cerebral spinal fluid was determined by a Western blotting method using an anti-IL-1β antibody (Millipore, AB1832P), and the inhibition ratio to the solvent administration group was calculated.

SMILES	IC50 [1] [nM]	other results
Cc1c(NC[C@@H](C)O)nnc(-c2ccc(C(F)(F)F)cc2O)c1C [Example 9, 2-(6-{[(R2R)-2-hydroxypropyl]amino}-4,5-dimethylpyridazin-3-yl)-5-(trifluoromethyl)phenol]	14	IL-1β p17 inhibition ratio to the solvent administration group ([2]; Dose 0.3 mg/kg): 37%; IL-1β p17 inhibition ratio to the solvent administration group ([2]; Dose 1 mg/kg): 70%; IL-1β p17 inhibition ratio to the solvent administration group ([2]; Dose 3 mg/kg): 89%
Cc1c(NC[C@@H](C)O)nnc(-c2ccc(C(F)(F)F)cc2C(F)(F)F)c1C [Example 4, (2R)-1-({6-[2,4-bis(trifluoromethyl)phenyl]-4,5-dimethylpyridazin-3-yl}amino)propan-2-ol]	210	IL-1β p17 inhibition ratio to the solvent administration group ([2]; Dose 3 mg/kg): 68%; IL-1β p17 inhibition ratio to the solvent administration group ([2]; Dose 10 mg/kg): 93%; IL-1β p17 inhibition ratio to the solvent administration group ([2]; Dose 30 mg/kg): 100%
Cc1cc(-c2ccc(C(F)(F)F)cc2C(F)(F)F)nnc1NC[C@@H](C)O [Example 6, (2R)-1-({6-[2,4-bis(trifluoromethyl)phenyl]-4-methylpyridazin-3-yl}amino)propan-2-ol]	90	–
CC(C)c1cc(NC[C@@H](C)O)nnc1-c1ccc(C(F)(F)F)cc1C(F)(F)F [Example 61]	1500	–
C[C@@H](O)CNc1nnc(-c2ccc(C(F)(F)F)cc2O)c(C2CC2)c1C1CC1 [Example 39]	750	–
CCOC(=O)c1cc(-c2ccc(C(F)(F)F)cc2C(F)(F)F)nnc1NC[C@@H](C)O [Example 3, ethyl 6-[2,4-bis(trifluoromethyl)phenyl]-3-{[(2R)-2-hydroxypropyl]amino}pyridazine-4-carboxylate]	120	–
Cc1cc(C)n(-c2cc(-c3ccc(C(F)(F)F)cc3C(F)(F)F)nnc2NC[C@@H](C)O)n1 [Example 15]	97	–
CC(=O)O[C@H](C)CNc1cc(C)c(-c2ccc(C(F)(F)F)cc2O)nn1 [Example 34]	21	–
